Test results as given in publication PMC11152041, “Tricarbonyl rhenium(I) complexes with 8-hydroxyquinolines: structural, chemical, antibacterial, and anticancer characteristics” (RSC Advances, 2024).
Values after ≈ are worked out from the molar mass of the structure shown. Read-outs that look alike come from different tables or passages of the source.

Key:
MCF-10A cells = experiment: MTT cytotoxicity assay; conditions: for IC50: read-out: IC50 ± SD
Method: (§1) The cytotoxicities for studied compounds were evaluated against leukemia cells (HL-60), as well as ovarian (SKOV-3), prostate (PC-3), and breast (MCF-7) cancer cell lines. The potential selectivity of these compounds towards cancer cells was assessed by determination of their cytotoxicities towards breast non-cancerous cells (MCF-10A). For comparison, cisplatin was added to the cytotoxicity assays.
(§2) Bacterial strains and cell lines were obtained from the American Type Culture Collection (ATCC).[59] […] Antimicrobial activity was tested in Müeller Hinton (MH) II broth (Becton Dickinson). For anticancer activity assay, the following reagents from Merk were used: 3-(4,5-dimethylthiazol-2-yl)-2,5-diphenyltetrazolium bromide (MTT), sodium dodecyl sulfate (SDS) and HCl. The solubilized formazan product was spectrophotometrically quantified in a Power Wave XS (Bio Tek, Winooski, VT, USA) microplate reader. The HL-60 and PC-3 cells were grown in RPMI-1640 medium with stable glutamine (Biowest) supplemented with 10% (v/v) of heat-inactivated fetal bovine serum (FBS, Biowest) and 1% (v/v) of antibiotic–antimycotic solution (Biowest). The SKOV-3 cells were grown in McCoy's 5A medium with L-glutamine (Biowest) supplemented with 10% (v/v) heat-inactivated FBS, and 1% (v/v) antibiotic–antimycotic solution. The MCF-7 cells were grown in Eagle's MEM (Minimal Essential Medium) medium with stable glutamine (Biowest), supplemented with 10% (v/v) heat-inactivated FBS 1% (v/v) MEM non-essential amino acids (Biowest), 1% (v/v) antibiotic–antimycotic solution, and 1 mM sodium pyruvate (Merck). The MCF-10A cells were grown in Ham's F-12K (Kaighn's) Medium with stable glutamine (Gibco) supplemented with 5% (v/v) heat-inactivated FBS, 1% (v/v) MEM non-essential amino acids, 1% (v/v) antibiotic–antimycotic solution, 5 μg mL^−1 insulin, 0.04 μg mL^−1 hydrocortisone (Merck), and 15 ng mL^−1 human Epidermal Growth Factor (hEGF, PeproTech).
(§3) The cells were cultured in 96-well plates and incubated with the tested compound for 24 h and 48 h. All experiments were performed in exponentially growing cultures. The 0.03 M solutions of the compounds in DMSO were appropriately diluted using culture media. The maximal final concentration of DMSO in each well was 0.1%. The cytotoxicity of the compounds was measured by determining cell viability with a colorimetric test based on 3-(4,5-dimethylthiazol-2-yl)-2,5-diphenyltetrazolium bromide (MTT). MTT stock solution was added to each well to a final concentration of 0.5 mg mL^−1 and incubated for 4 h at 37 °C; following formazan crystals were dissolved by the addition of sodium dodecyl sulfate (SDS) solution (10% SDS in 0.001 M HCl). MTT and SDS were added directly to the cell culture. The compound's IC50 values (concentration required to reduce the viability of cells by 50% compared with the control cells) were calculated from the data obtained with the MTT assay.

E. coli ATCC25922 = experiment: Broth microdilution MIC/MBC (ISO 20776-1); assay type: cell-based, Escherichia coli
Method: as §2
(§4) The in vitro antibacterial activity was determined according to ISO 20776-1.[88] Among the tested microorganisms were Gram-negative rods, E. coli ATCC25922 and P. aeruginosa ATCC27853, and Gram-positive cocci, S. aureus ATCC29213 and E. faecalis ATCC29212. The selected bacterial species represented the most common etiologic agents of human infections and are used for quality control of antimicrobial susceptibility testing.[89] The test procedure included the determination of MICs and MBCs of complexes and their free ligands. MIC and MBC determinations of ciprofloxacin, as the reference antibiotic, were also performed. All compounds were dissolved in DMSO to reach the maximum 512 mg L^−1 concentration. […] The assay consisted of preparing 2-fold dilutions of the substances in a liquid growth medium MH II and inoculating them with a standardized suspension of microorganisms at a McFarland density of 0.5 (≈10^8 CFU mL^−1). The culture plates were incubated at 35 °C for 24 h. The lowest concentration of the compound inhibiting visible bacterial growth was specified as MIC, and the concentration that reduced bacterial growth by >99.99% after counting live bacteria on the plates compared to the positive control was defined as MBC.

S. aureus ATCC29213 = experiment: Broth microdilution MIC/MBC (ISO 20776-1); assay type: cell-based, Staphylococcus aureus
Method: as §2, §4

PC-3 cells = experiment: MTT cytotoxicity assay; assay type: cell-based, human; conditions: for IC50: read-out: IC50 ± SD
Method: as §1, §2, §3

MCF-7 cells = experiment: MTT cytotoxicity assay; assay type: cell-based, human; conditions: for IC50: read-out: IC50 ± SD
Method: as §1, §2, §3

HL-60 cells = experiment: MTT cytotoxicity assay; assay type: cell-based, human; conditions: read-out: IC50 ± SD
Method: as §1, §2, §3

SKOV-3 cells = experiment: MTT cytotoxicity assay; assay type: cell-based, human; conditions: read-out: IC50 ± SD
Method: as §1, §2, §3

E. faecalis ATCC29212 = experiment: Broth microdilution MIC/MBC (ISO 20776-1); assay type: cell-based, Enterococcus faecalis
Method: as §2, §4

P. aeruginosa ATCC27853 = experiment: Broth microdilution MIC/MBC (ISO 20776-1); assay type: cell-based, Pseudomonas aeruginosa
Method: as §2, §4

[1] = MCF-10A (non-cancerous), 24 h, MTT, * precipitation of the complex
[2] = MCF-10A (non-cancerous), 48 h, MTT, * precipitation of the complex
[3] = E. coli ATCC25922, >99.99% reduction of growth
[4] = E. coli ATCC25922, MH II broth, 35 °C, 24 h
[5] = S. aureus ATCC29213, >99.99% reduction of growth
[6] = S. aureus ATCC29213, MH II broth, 35 °C, 24 h
[7] = E. faecalis ATCC29212, >99.99% reduction of growth
[8] = E. faecalis ATCC29212, MH II broth, 35 °C, 24 h
[9] = P. aeruginosa ATCC27853, >99.99% reduction of growth
[10] = P. aeruginosa ATCC27853, MH II broth, 35 °C, 24 h

Molecule	IC50 (MCF-10A cells; [1])	IC50 (MCF-10A cells; [2])	MBC (E. coli ATCC25922; [3])	MIC (E. coli ATCC25922; [4])	MBC (S. aureus ATCC29213; [5])	MIC (S. aureus ATCC29213; [6])	IC50 (PC-3 cells; PC-3, 24 h, MTT)	IC50 (PC-3 cells; PC-3, 48 h, MTT)	IC50 (MCF-7 cells; MCF-7, 24 h, MTT)	IC50 (MCF-7 cells; MCF-7, 48 h, MTT)	IC50 (HL-60 cells; HL-60, 24 h, MTT)	IC50 (HL-60 cells; HL-60, 48 h, MTT)	IC50 (SKOV-3 cells; SKOV-3, 24 h, MTT)	IC50 (SKOV-3 cells; SKOV-3, 48 h, MTT)	MBC (E. faecalis ATCC29212; [7])	MIC (E. faecalis ATCC29212; [8])	MBC (P. aeruginosa ATCC27853; [9])	MIC (P. aeruginosa ATCC27853; [10])	further results
[C-]#[O+].[C-]#[O+].[C-]#[O+].[Re][O]c1cccc2cccnc12.c1ccc(-c2ccn[nH]2)cc1 [complex 4, [Re(CO)3(Q)HPhpz]·0.5CH3CN]	50 ± 5 µM	36 ± 4 µM	>512/>512 mg L^−1	>512/>512 mg L^−1	> 512 µg/mL	256 µg/mL	42 ± 6 µM	27 ± 3 µM	73 ± 3 µM	50 ± 3 µM	9 ± 1 µM	9 ± 1 µM	> 100 µM	81 ± 9 µM	> 512 µg/mL	32 µg/mL	>512/>512 mg L^−1	>512/>512 mg L^−1	
Cc1ccc2cccc([O][Re])c2n1.[C-]#[O+].[C-]#[O+].[C-]#[O+].c1c[nH]cn1 [complex 5, [Re(CO)3(MeQ)Him]]	50 ± 2 µM	> 50 µM	16/16 mg L^−1	16/16 mg L^−1	512 µg/mL	16 µg/mL	11 ± 3 µM	28 ± 6 µM	47 ± 7 µM	43 ± 6 µM	11 ± 2 µM	4 ± 1 µM	31 ± 5 µM	26 ± 11 µM	> 512 µg/mL	32 µg/mL	64 mg/L	16 mg/L	solubility in the cytotoxicity assay (MCF-10A cells; MCF-10A cell line culture medium): precipitated at higher concentrations; fold decline of MBC compared to the free ligand (E. coli ATCC25922; E. coli, compared with MeHQ): 5 fold; times lower effect after 48 h than after 24 h (PC-3 cells; PC-3, IC50 48 h versus 24 h): about 2.5 times; fold increase of MBC compared to the free ligand (E. faecalis ATCC29212; E. faecalis, compared with MeHQ): 4 fold; fold better activity than the free MeHQ ligand (P. aeruginosa ATCC27853; P. aeruginosa, MIC/MBC compared with MeHQ): 4 fold
Oc1cccc2cccnc12 [HQ, 8-hydroxyquinoline]																			IC50 (MCF-10A cells; Homo sapiens, MCF-10A, 24 h): > 100 µM; IC50 (MCF-10A cells; Homo sapiens, MCF-10A, 48 h): > 100 µM; MBC (E. coli ATCC25922; Escherichia coli, ATCC25922): > 512 µg/mL; MIC (E. coli ATCC25922; Escherichia coli, ATCC25922, 24 h): 32 µg/mL (≈ 220 µM); MBC (S. aureus ATCC29213; Staphylococcus aureus, ATCC29213): 64 µg/mL (≈ 441 µM); MIC (S. aureus ATCC29213; Staphylococcus aureus, ATCC29213, 24 h): 16 µg/mL (≈ 110 µM); IC50 (PC-3 cells; Homo sapiens, PC-3, 24 h): 18 ± 2 µM; IC50 (PC-3 cells; Homo sapiens, PC-3, 48 h): 29 ± 3 µM; IC50 (MCF-7 cells; Homo sapiens, MCF7, 24 h): 24 ± 6 µM; IC50 (MCF-7 cells; Homo sapiens, MCF7, 48 h): 7 ± 2 µM; selectivity: IC50 for normal cells times higher than for breast cancer cells (MCF-7 cells; MCF-10A versus MCF-7): at least 3 times; IC50 (HL-60 cells; Homo sapiens, HL-60, 24 h): 2.2 ± 0.2 µM; IC50 (HL-60 cells; Homo sapiens, HL-60, 48 h): 2 ± 0.2 µM; IC50 (SKOV-3 cells; Homo sapiens, SK-OV-3, 24 h): > 100 µM; IC50 (SKOV-3 cells; Homo sapiens, SK-OV-3, 48 h): 29 ± 5 µM; MBC (E. faecalis ATCC29212; Enterococcus faecalis, ATCC29212): 32 µg/mL (≈ 220 µM); MIC (E. faecalis ATCC29212; Enterococcus faecalis, ATCC29212, 24 h): 2 µg/mL (≈ 13.8 µM); MBC (P. aeruginosa ATCC27853; Pseudomonas aeruginosa, ATCC27853): > 512 mg/L; MIC (P. aeruginosa ATCC27853; Pseudomonas aeruginosa, ATCC27853, 24 h): 256 mg/L (≈ 1760 µM)
[Re(CO)3(ClQ)MeHim]·CH3CN [complex 10]	15 ± 1 µM	12 ± 1 µM	512/>512 mg L^−1	512/>512 mg L^−1	> 512 µg/mL	64 µg/mL	23 ± 2 µM	23 ± 2 µM	54 ± 4 µM	53 ± 4 µM	5 ± 1 µM	7 ± 1 µM	34 ± 5 µM	32 ± 7 µM	> 512 µg/mL	4 µg/mL	512/>512 mg L^−1	512/>512 mg L^−1	
Cc1ccc2cccc([O][Re])c2n1.Cc1ncc[nH]1.[C-]#[O+].[C-]#[O+].[C-]#[O+] [complex 6, [Re(CO)3(MeQ)MeHim]]	66 ± 1 µM	35 ± 1 µM	>512/>512 mg L^−1	>512/>512 mg L^−1	512 µg/mL	64 µg/mL	54 ± 7 µM	22 ± 5 µM	44 ± 1 µM	35 ± 6 µM	14 ± 1 µM	9 ± 1 µM	32 ± 7 µM	30 ± 9 µM	256 µg/mL	64 µg/mL	>512/>512 mg L^−1	>512/>512 mg L^−1	
